IC50 data for 22 compounds are collected here from patent US20260028365A1 (BIOGEN MA INC., priority 2022, published 2026).

In one experiment the target is JH2 domain of human Tyk2 (Homo sapiens (Human), UniProt P29597). Briefly: JH2 Biochemical Assay (TR-FRET probe displacement). Type of experiment: binding.
A further experiment concerns the target JAK2 (Homo sapiens (Human), UniProt O60674). Briefly: pSTAT5 Cell Assay (MSD, TF1 cells). The class given is cell-based. The conditions noted are these: MSD. The protocol: Compounds of the disclosure were assessed for their ability to inhibit the JAK2 kinase activity on STAT5 utilizing an MSD-platform plate-based assay format. TF1 cells natively expressing STAT5 and JAK2 were serum-starved to reduce background phosphorylation levels, then cells were treated with compounds of disclosure for 1 hour with a 10-point four-fold dilution series starting at 10 μM. Cells were then stimulated with 30 ng/mL IL-3 for 15 minutes. Cells were then lysed and pSTAT5 levels were quantitated using an MSD plate-based assay with anti-STAT5 antibodies. The data were normalized and the percent activity versus log concentration of compound was fitted with a 4-parameter logistic model to generate a curve and an IC50 value.

A further experiment has as its target Tyk2 (Homo sapiens (Human), UniProt P29597). Briefly: pSTAT4 Cell Assay (MSD, NK92 cells). The conditions noted are these: MSD. The class given is cell-based.
For a further experiment, the target named is JAK1 (Homo sapiens (Human), UniProt P23458). Nature of the experiment: pSTAT3 Cell Assay (MSD, TF1 cells). Type of experiment: cell-based. The conditions noted are these: MSD. Put shortly:
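Readout is pSTAT3 in lysates, quantified on an MSD plate assay using anti-STAT3 antibodies. Before lysis, TF1 cells had been serum-starved, exposed to compound for 1 hour across ten four-fold dilutions starting at 10 μM, and given IL-6 for 15 minutes.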

Where [1] appears, read: TR-FRET probe displacement, JH2 domain of human Tyk2.
Where [2] appears, read: JH2 domain of human Tyk2, TR-FRET probe displacement.

Chain of JH2 domain of human Tyk2 (P29597 575-876): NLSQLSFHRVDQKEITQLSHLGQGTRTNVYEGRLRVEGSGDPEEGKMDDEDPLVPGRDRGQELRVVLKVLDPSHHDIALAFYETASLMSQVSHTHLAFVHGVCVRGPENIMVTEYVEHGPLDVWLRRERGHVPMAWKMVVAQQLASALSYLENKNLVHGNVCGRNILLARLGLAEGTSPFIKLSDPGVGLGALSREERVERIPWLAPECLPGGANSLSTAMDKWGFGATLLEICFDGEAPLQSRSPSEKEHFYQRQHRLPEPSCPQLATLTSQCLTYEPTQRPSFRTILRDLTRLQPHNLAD
Chain of Tyk2 (P29597 whole entry): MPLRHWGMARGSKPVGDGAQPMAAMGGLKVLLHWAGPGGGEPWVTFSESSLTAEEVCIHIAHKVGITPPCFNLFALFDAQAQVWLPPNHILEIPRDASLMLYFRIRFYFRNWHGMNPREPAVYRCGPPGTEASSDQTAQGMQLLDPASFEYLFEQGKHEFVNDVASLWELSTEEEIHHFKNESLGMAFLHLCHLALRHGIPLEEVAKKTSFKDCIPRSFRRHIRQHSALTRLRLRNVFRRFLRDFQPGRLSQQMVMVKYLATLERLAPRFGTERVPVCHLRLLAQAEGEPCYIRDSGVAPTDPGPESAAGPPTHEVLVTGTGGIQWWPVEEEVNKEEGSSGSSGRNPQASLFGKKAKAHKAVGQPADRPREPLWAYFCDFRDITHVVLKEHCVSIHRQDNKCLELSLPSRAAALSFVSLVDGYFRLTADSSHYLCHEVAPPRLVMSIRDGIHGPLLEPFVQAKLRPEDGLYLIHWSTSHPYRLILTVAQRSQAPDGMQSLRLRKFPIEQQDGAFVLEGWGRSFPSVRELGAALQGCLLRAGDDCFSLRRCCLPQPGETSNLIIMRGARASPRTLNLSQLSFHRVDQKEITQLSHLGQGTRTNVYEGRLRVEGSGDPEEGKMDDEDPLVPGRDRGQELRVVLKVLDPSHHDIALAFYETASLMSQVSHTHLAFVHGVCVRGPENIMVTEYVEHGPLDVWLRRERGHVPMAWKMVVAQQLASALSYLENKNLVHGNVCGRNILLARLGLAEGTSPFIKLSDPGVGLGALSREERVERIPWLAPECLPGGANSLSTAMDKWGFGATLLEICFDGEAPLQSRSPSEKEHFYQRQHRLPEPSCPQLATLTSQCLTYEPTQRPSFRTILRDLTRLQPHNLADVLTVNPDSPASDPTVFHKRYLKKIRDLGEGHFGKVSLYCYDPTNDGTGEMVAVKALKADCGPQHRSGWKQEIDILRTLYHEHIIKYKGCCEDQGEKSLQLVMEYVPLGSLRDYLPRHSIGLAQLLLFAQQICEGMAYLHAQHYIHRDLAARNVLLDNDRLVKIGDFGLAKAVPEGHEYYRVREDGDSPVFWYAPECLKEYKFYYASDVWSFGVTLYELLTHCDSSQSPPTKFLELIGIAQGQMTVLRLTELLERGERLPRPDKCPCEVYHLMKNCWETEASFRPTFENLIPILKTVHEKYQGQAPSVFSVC
Chain of JAK2 (O60674 whole entry): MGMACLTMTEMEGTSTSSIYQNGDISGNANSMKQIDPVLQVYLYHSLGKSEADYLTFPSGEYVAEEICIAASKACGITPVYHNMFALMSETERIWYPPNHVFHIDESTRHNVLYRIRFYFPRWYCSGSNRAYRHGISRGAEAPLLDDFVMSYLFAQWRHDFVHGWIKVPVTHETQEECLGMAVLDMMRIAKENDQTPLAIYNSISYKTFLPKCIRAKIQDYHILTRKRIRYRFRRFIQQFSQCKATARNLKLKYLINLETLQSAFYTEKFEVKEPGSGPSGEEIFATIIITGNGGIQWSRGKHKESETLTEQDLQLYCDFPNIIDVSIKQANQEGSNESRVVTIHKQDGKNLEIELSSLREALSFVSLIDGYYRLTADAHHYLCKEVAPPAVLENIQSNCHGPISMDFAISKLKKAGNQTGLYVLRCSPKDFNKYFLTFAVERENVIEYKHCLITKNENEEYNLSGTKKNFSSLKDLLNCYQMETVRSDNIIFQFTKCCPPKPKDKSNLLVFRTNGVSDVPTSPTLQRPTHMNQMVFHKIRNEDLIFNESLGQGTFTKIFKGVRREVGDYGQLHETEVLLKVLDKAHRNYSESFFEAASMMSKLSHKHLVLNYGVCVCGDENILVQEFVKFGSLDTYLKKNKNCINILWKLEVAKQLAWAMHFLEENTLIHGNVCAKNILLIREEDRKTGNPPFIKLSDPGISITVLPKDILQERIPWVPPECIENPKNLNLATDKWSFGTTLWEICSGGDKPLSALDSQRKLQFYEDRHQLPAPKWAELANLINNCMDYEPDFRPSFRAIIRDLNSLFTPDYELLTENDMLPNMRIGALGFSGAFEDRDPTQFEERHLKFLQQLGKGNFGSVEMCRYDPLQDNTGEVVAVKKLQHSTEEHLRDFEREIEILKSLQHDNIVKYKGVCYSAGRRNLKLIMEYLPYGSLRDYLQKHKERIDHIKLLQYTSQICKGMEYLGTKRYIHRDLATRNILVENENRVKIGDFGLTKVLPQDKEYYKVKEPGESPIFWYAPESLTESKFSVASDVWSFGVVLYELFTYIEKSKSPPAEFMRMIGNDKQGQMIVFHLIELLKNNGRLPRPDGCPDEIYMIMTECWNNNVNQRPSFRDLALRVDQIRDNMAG
Chain of JAK1 (P23458 whole entry): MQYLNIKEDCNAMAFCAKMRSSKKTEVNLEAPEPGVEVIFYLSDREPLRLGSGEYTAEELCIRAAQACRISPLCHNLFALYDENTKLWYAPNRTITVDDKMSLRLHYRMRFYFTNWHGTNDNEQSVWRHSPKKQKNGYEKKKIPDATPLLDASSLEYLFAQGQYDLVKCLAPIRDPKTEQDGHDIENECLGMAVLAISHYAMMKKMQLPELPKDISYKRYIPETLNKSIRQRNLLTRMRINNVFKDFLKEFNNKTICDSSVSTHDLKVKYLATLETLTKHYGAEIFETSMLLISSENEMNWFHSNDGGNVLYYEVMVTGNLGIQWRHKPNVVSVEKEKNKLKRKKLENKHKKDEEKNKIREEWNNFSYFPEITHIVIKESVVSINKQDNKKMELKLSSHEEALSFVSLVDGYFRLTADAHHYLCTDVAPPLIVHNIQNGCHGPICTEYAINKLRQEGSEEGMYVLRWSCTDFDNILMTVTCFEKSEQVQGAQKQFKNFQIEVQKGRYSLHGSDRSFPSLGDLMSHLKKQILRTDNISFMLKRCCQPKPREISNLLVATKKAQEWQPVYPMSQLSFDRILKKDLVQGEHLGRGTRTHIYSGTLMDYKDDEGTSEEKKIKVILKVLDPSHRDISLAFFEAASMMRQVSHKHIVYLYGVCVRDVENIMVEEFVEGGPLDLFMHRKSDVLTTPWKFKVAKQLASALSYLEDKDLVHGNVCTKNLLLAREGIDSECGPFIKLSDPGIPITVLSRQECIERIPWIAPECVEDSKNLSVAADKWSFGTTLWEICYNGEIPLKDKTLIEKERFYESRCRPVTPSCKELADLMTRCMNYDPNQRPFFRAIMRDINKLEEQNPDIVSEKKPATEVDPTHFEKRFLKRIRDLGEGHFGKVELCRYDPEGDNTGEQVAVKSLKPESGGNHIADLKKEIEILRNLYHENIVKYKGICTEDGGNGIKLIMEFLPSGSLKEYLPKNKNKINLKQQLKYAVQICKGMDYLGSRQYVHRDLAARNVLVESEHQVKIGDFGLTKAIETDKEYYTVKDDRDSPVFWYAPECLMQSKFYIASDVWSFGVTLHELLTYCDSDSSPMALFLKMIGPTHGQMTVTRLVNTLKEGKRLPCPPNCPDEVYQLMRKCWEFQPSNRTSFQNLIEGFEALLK

As usually defined, the IC50 is the concentration needed to halve the response being measured. A lower IC50 goes with greater potency in that assay. Turning to `CC(=O)Nc1cc(Nc2cc(C)nc(C(C)(C)F)n2)c(-c2cc(C)ncn2)cn1` [Example 200, N-(4-((2-(2-fluoropropan-2-yl)-6-methylpyrimidin-4-yl)amino)-5-(6-methylpyrimidin-4-yl)pyridin-2-yl)acetamide], the IC50 on JH2 domain of human Tyk2 (setting [1]) is not above 10 nM; against JAK2 (IL-3 stimulation), not below 1000 nM; at Tyk2 it was 10 to 100 nM; against JAK1 (IL-6 stimulation) it was not below 1000 nM.

With `COc1cnc(NC(C)=O)cc1Nc1cc(C2CC2)nc(C(C)(F)F)n1` [Example 17, N-(4-((6-cyclopropyl-2-(1,1-difluoroethyl)pyrimidin-4-yl)amino)-5-methoxypyridin-2-yl)acetamide], the IC50 at JH2 domain of human Tyk2 (setting [1]) was not above 10 nM; at JAK2 (IL-3 stimulation) it was not below 1000 nM; against Tyk2 it was 10 to 100 nM; on JAK1 (IL-6 stimulation) it was not below 1000 nM.

Consider `COCCOc1cnc(NC(C)=O)cc1Nc1cc(C)nc(C(C)(C)F)n1` [Example 406, N-(4-((2-(2-fluoropropan-2-yl)-6-methylpyrimidin-4-yl)amino)-5-(2-methoxyethoxy)pyridin-2-yl)acetamide], for which the concentration for half-maximal inhibition (IC50) on JH2 domain of human Tyk2 (setting [2]) was not above 10 nM; against JAK2 (IL-3 stimulated) it was not below 1000 nM; against Tyk2 it was not above 10 nM; against JAK1 (IL-6 stimulated), not below 1000 nM.

Take `CC(=O)Nc1cc(Nc2cc(C)nc(C(C)(F)F)n2)c(-c2ccn(C)n2)cn1` [Example 218, N-(4-((2-(1,1-difluoroethyl)-6-methylpyrimidin-4-yl)amino)-5-(1-methyl-1H-pyrazol-3-yl)pyridin-2-yl)acetamide]: the IC50 is not above 10 nM at JH2 domain of human Tyk2 (setting [1]), not below 1000 nM against JAK2 (IL-3 stimulation), not above 10 nM against Tyk2 and not below 1000 nM against JAK1 (IL-6 stimulation).

For `CCc1cc(Nc2cc(NC(C)=O)ncc2OCCCOC)nc(C(C)(F)F)n1` [Example 69, N-(4-((2-(1,1-difluoroethyl)-6-ethylpyrimidin-4-yl)amino)-5-(3-methoxypropoxy)pyridin-2-yl)acetamide], the IC50 on JH2 domain of human Tyk2 (setting [1]) is not above 10 nM; against JAK2 (IL-3 stimulation), not below 1000 nM; at Tyk2, 10 to 100 nM; against JAK1 (IL-6 stimulation), not below 1000 nM.

Consider `CC(=O)Nc1cc(Nc2cncc(C(C)(F)F)n2)c(-c2ccn(C)n2)cn1` [Example 212, N-(4-((6-(1,1-difluoroethyl)pyrazin-2-yl)amino)-5-(1-methyl-1H-pyrazol-3-yl)pyridin-2-yl)acetamide], for which the IC50 is not above 10 nM on JH2 domain of human Tyk2 (setting [1]), 100 to 1000 nM against JAK2 (IL-3 stimulation), not above 10 nM at Tyk2 and not below 1000 nM at JAK1 (IL-6 stimulation).

In the case of `CCOc1cnc(NC(C)=O)cc1Nc1cc(OC2CC2)nc(C(C)(F)F)n1` [Example 490, N-(4-((6-cyclopropoxy-2-(1,1-difluoroethyl)pyrimidin-4-yl)amino)-5-ethoxypyridin-2-yl)acetamide], the IC50 at JH2 domain of human Tyk2 (setting [2]) is not above 10 nM; against JAK2 (IL-3 stimulated), not below 1000 nM; at Tyk2, not above 10 nM; against JAK1 (IL-6 stimulated) it was not below 1000 nM.

In the case of `CC(=O)Nc1cc(Nc2cc(C)nc(C34COC(C3)C4)n2)c(-c2ccn(C)n2)cn1` [Example 552, N-(4-((2-(2-oxabicyclo[2.1.1]hexan-4-yl)-6-methylpyrimidin-4-yl)amino)-5-(1-methyl-1H-pyrazol-3-yl)pyridin-2-yl)acetamide], the half-maximal inhibitory concentration (IC50) was not above 10 nM on JH2 domain of human Tyk2 (setting [2]), not below 1000 nM against JAK2 (IL-3 stimulated), 10 to 100 nM on Tyk2 and not below 1000 nM at JAK1 (IL-6 stimulated).

In the case of `COCCOc1cnc(NC(C)=O)cc1Nc1cc(C(C)C)nc(C(C)(F)F)n1` [Example 300, N-(4-((2-(1,1-difluoroethyl)-6-isopropylpyrimidin-4-yl)amino)-5-(2-methoxyethoxy)pyridin-2-yl)acetamide], the IC50 at JH2 domain of human Tyk2 (setting [1]) is not above 10 nM; on JAK2 (IL-3 stimulation) it was not below 1000 nM; against Tyk2, not above 10 nM; on JAK1 (IL-6 stimulation), not below 1000 nM.

For the compound `CC(=O)Nc1cc(Nc2cc(C)nc(C(C)(F)F)n2)c(-c2cnn(C)n2)cn1` [Example 227, N-(4-((2-(1,1-difluoroethyl)-6-methylpyrimidin-4-yl)amino)-5-(2-methyl-2H-1,2,3-triazol-4-yl)pyridin-2-yl)acetamide], the IC50 on JH2 domain of human Tyk2 (setting [1]) is not above 10 nM; against JAK2 (IL-3 stimulation), not below 1000 nM; against Tyk2, not above 10 nM; at JAK1 (IL-6 stimulation), not below 1000 nM.

For `COc1cc(Nc2cc(NC(C)=O)ncc2-c2ccn(C)n2)nc(C(C)(F)F)n1` [Example 50, N-(4-((2-(1,1-difluoroethyl)-6-methoxypyrimidin-4-yl)amino)-5-(1-methyl-1H-pyrazol-3-yl)pyridin-2-yl)acetamide], the IC50 at JH2 domain of human Tyk2 (setting [1]) is not above 10 nM; on JAK2 (IL-3 stimulation) it was not below 1000 nM; at Tyk2, not above 10 nM; against JAK1 (IL-6 stimulation) it was not below 1000 nM.

As for `CCOc1cnc(NC(C)=O)cc1Nc1cc(C2CC2)nc(C(C)(F)F)n1` [Example 13, N-(4-((6-cyclopropyl-2-(1,1-difluoroethyl)pyrimidin-4-yl)amino)-5-ethoxypyridin-2-yl)acetamide], the half-maximal inhibitory concentration (IC50) on JH2 domain of human Tyk2 (setting [1]) was not above 10 nM; against JAK2 (IL-3 stimulation), not below 1000 nM; against Tyk2, 10 to 100 nM; on JAK1 (IL-6 stimulation), not below 1000 nM.

With `COCc1ccc(-c2cnc(NC(C)=O)cc2Nc2cc(C)nc(C34COC(C3)C4)n2)nc1` [Example 565, N-(4′-((2-(2-oxabicyclo[2.1.1]hexan-4-yl)-6-methylpyrimidin-4-yl)amino)-5-(methoxymethyl)-[2,3′-bipyridin]-6′-yl)acetamide], the IC50 on JH2 domain of human Tyk2 (setting [2]) was not above 10 nM; on JAK2 (IL-3 stimulated) it was not below 1000 nM; on Tyk2, not above 10 nM; at JAK1 (IL-6 stimulated), not below 1000 nM.

Turning to `CCOc1cnc(NC(C)=O)cc1Nc1cc(O[C@H]2C[C@H](OC)C2)cc(C(C)(F)F)n1` [Example 14, N-(4-((6-(1,1-difluoroethyl)-4-((1r,3r)-3-methoxycyclobutoxy)pyridin-2-yl)amino)-5-ethoxypyridin-2-yl)acetamide], the IC50 on JH2 domain of human Tyk2 (setting [1]) was not above 10 nM; against JAK2 (IL-3 stimulation), not below 1000 nM; at Tyk2 it was 10 to 100 nM; against JAK1 (IL-6 stimulation), not below 1000 nM.

As to `COc1ccc(-c2cnc(NC(C)=O)cc2Nc2cc(C)nc(C(C)(F)F)n2)nn1` [Example 676, N-(4-((2-(1,1-difluoroethyl)-6-methylpyrimidin-4-yl)amino)-5-(6-methoxypyridazin-3-yl)pyridin-2-yl)acetamide], the IC50 at JH2 domain of human Tyk2 (setting [2]) was not above 10 nM; against JAK2 (IL-3 stimulated) it was not below 1000 nM; on Tyk2 it was not above 10 nM; against JAK1 (IL-6 stimulated) it was not below 1000 nM.

Consider `COc1cc(-c2cnc(NC(C)=O)cc2Nc2ccnc(C(C)(C)F)n2)ncn1` [Example 195, N-(4-((2-(2-fluoropropan-2-yl)pyrimidin-4-yl)amino)-5-(6-methoxypyrimidin-4-yl)pyridin-2-yl)acetamide], for which the IC50 on JH2 domain of human Tyk2 (setting [1]) was not above 10 nM; against JAK2 (IL-3 stimulation) it was not below 1000 nM; on Tyk2, 10 to 100 nM; against JAK1 (IL-6 stimulation), not below 1000 nM.

On to `[2H]C([2H])([2H])Oc1cnc(NC(C)=O)cc1Nc1cc(C(C)C)nc(C(C)(F)F)n1` [Example 315, N-(4-((2-(1,1-difluoroethyl)-6-isopropylpyrimidin-4-yl)amino)-5-(methoxy-d3)pyridin-2-yl)acetamide], for which the IC50 on JH2 domain of human Tyk2 (setting [1]) is not above 10 nM; at JAK2 (IL-3 stimulation) it was not below 1000 nM; against Tyk2, 10 to 100 nM; against JAK1 (IL-6 stimulation) it was not below 1000 nM.

As for `CC(=O)Nc1cc(Nc2cc(C)nc(C(C)(F)F)n2)c(-c2cnc(F)cn2)cn1` [Example 598, N-(4-((2-(1,1-difluoroethyl)-6-methylpyrimidin-4-yl)amino)-5-(5-fluoropyrazin-2-yl)pyridin-2-yl)acetamide], the IC50 at JH2 domain of human Tyk2 (setting [2]) is not above 10 nM; on JAK2 (IL-3 stimulated), not below 1000 nM; against Tyk2, 10 to 100 nM; against JAK1 (IL-6 stimulated), not below 1000 nM.

On to `CC(=O)Nc1cc(Nc2cc(C)nc(C(C)(C)F)n2)c(-c2ccn3ncnc3n2)cn1` [Example 534, N-(5-([1,2,4]triazolo[1,5-a]pyrimidin-5-yl)-4-((2-(2-fluoropropan-2-yl)-6-methylpyrimidin-4-yl)amino)pyridin-2-yl)acetamide], for which the IC50 on JH2 domain of human Tyk2 (setting [2]) was not above 10 nM; on JAK2 (IL-3 stimulated), not below 1000 nM; on Tyk2, not above 10 nM; at JAK1 (IL-6 stimulated), not below 1000 nM.

For the compound `COCCn1ncc(-c2cnc(NC(C)=O)cc2Nc2cc(C)nc(C(C)(F)F)n2)n1` [Example 260, N-(4-((2-(1,1-difluoroethyl)-6-methylpyrimidin-4-yl)amino)-5-(2-(2-methoxyethyl)-2H-1,2,3-triazol-4-yl)pyridin-2-yl)acetamide], the IC50 on JH2 domain of human Tyk2 (setting [1]) was not above 10 nM; against JAK2 (IL-3 stimulation), not below 1000 nM; on Tyk2 it was not above 10 nM; at JAK1 (IL-6 stimulation), not below 1000 nM.

As for `CCOc1cnc(NC(C)=O)cc1Nc1cc(OC)nc(C(C)(F)F)n1` [Example 5, N-(4-((2-(1,1-difluoroethyl)-6-methoxypyrimidin-4-yl)amino)-5-ethoxypyridin-2-yl)acetamide], the IC50 on JH2 domain of human Tyk2 (setting [1]) is not above 10 nM; on JAK2 (IL-3 stimulation), not below 1000 nM; against Tyk2 it was 10 to 100 nM; against JAK1 (IL-6 stimulation), not below 1000 nM.

`CC(=O)Nc1cc(Nc2cc(OC3CC3)nc(C(C)(F)F)n2)c(O[C@H]2C[C@@H](F)C2)cn1` [Example 353, N-(4-((6-cyclopropoxy-2-(1,1-difluoroethyl)pyrimidin-4-yl)amino)-5-((1s,3s)-3-fluorocyclobutoxy)pyridin-2-yl)acetamide]: the IC50 at JH2 domain of human Tyk2 (setting [1]) is not above 10 nM; on JAK2 (IL-3 stimulation), not below 1000 nM; at Tyk2, not above 10 nM; on JAK1 (IL-6 stimulation) it was not below 1000 nM.
